Measured values: the supplement of paper PMC11208160

Test: recombinant barcode read abundance after kanamycin selection (control-corrected) (log10(CPM+1)); higher = more efficient recombination; sequences stand for … in AGTGCAGAGAAAATCGGCCAGTTTTCTCTGCCTGCAGTCCGCATGCCGT…AGATTTATGCAGCGGACTGCCTTTCTCCCAAAGTGATAAACCGGACAGTATCATGGACCGGTTTTCCCGGTAATCCGTATTTGCAAGGTTGGTTTCACT; site = the 11-nt target
Method in brief: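 Each value is log10(CPM+1). It describes recombination efficiency, taken as averaged, control-corrected counts per million of barcodes at recombinant junctions. The pooled E. coli library paired targets with IS621 bridge RNA target-binding loops, was co-electroporated with a donor plasmid, and was plated twice on chloramphenicol/ampicillin LB agar (control) and twice on chloramphenicol/ampicillin/kanamycin containing 0.1 mM IPTG.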
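Note: IS621 recombinase and bridge RNA in Escherichia coli cells.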

Row | Sequence | recombinant barcode read abundance (log10)
1 | CTGGTGTCTTGGGTTCTAACCTGTTGCCT (site CTGGCGTCTAG) | 0.248
2 | CTGGTGTCTTGGGTTCTAACCTGTTGCCT (site CTGGGGTCTAG) | 0.0939
3 | CTGGTGTCTTGGGTTCTAACCTGTTGCCT (site CTGGTGTCTAG) | 2.42
4 | CTGTATACTTGGGTTCTAACCTGTTGCCA (site CTATATACTTG) | 0.113
5 | CTGTATACTTGGGTTCTAACCTGTTGCCA (site CTGTATACTTG) | 0.175
6 | CTGTCGCCTTGGGTTCTAACCTGTTGCCT (site CTATCGCCTAG) | 0.699
7 | CTGTCGCCTTGGGTTCTAACCTGTTGCCT (site CTCTCGCCTAG) | 0.0526
8 | CTGTCGCCTTGGGTTCTAACCTGTTGCCT (site CTGTCGCCTAG) | 0.276
9 | CTGTCGCCTTGGGTTCTAACCTGTTGCCT (site CTTTCGCCTAG) | 0.0305
10 | CTGTCTCCTTGGGTTCTAACCTGTTGCCT (site ATGTCTCCTAG) | 0.221
11 | CTGTCTCCTTGGGTTCTAACCTGTTGCCT (site CTGTCTCCTAG) | 1.29
12 | CTGTCTCCTTGGGTTCTAACCTGTTGCCT (site GTGTCTCCTAG) | 0.0715
13 | CTGTCTCCTTGGGTTCTAACCTGTTGCCT (site TTGTCTCCTAG) | 0.3
14 | CTGTGAACTTGGGTTCTAACCTGTTGCCT (site CAGTGAACTAG) | 0.128
15 | CTGTGAACTTGGGTTCTAACCTGTTGCCT (site CCGTGAACTAG) | 0.133
16 | CTGTGAACTTGGGTTCTAACCTGTTGCCT (site CGGTGAACTAG) | 0.216
17 | CTGTGAACTTGGGTTCTAACCTGTTGCCT (site CTGTGAACTAG) | 0.679
18 | CTGTGCCCTTGGGTTCTAACCTGTTGCCT (site CTGAGCCCTAG) | 0.105
19 | CTGTGCCCTTGGGTTCTAACCTGTTGCCT (site CTGCGCCCTAG) | 0.0771
20 | CTGTGCCCTTGGGTTCTAACCTGTTGCCT (site CTGGGCCCTAG) | 0.0673
21 | CTGTGCCCTTGGGTTCTAACCTGTTGCCT (site CTGTGCCCTAG) | 0.574
22 | CTGTTCCCTTGGGTTCTAACCTGTTGCGG (site CTGATCCCTCC) | 0.291

Row | Sequence | recombinant barcode read abundance (log10)
23 | CTGTTCCCTTGGGTTCTAACCTGTTGCGG (site CTGCTCCCTCC) | 0.797
24 | CTGTTCCCTTGGGTTCTAACCTGTTGCGG (site CTGGTCCCTCC) | 0.129
25 | CTGTTCCCTTGGGTTCTAACCTGTTGCGG (site CTGTTCCCTCC) | 1.05
26 | CTTACGGCTTGGGTTCTAACCTGTTGCCT (site CTTACAGCTAG) | 0.186
27 | CTTACGGCTTGGGTTCTAACCTGTTGCCT (site CTTACCGCTAG) | 0.196
28 | CTTACGGCTTGGGTTCTAACCTGTTGCCT (site CTTACGGCTAG) | 0.0569
29 | CTTACGGCTTGGGTTCTAACCTGTTGCCT (site CTTACTGCTAG) | 0.262
30 | CTTCATCCTTGGGTTCTAACCTGTTGCCT (site CTTCAACCTAG) | 0.0199
31 | CTTCATCCTTGGGTTCTAACCTGTTGCCT (site CTTCACCCTAG) | 0.34
32 | CTTCATCCTTGGGTTCTAACCTGTTGCCT (site CTTCAGCCTAG) | 0.0613
33 | CTTCATCCTTGGGTTCTAACCTGTTGCCT (site CTTCATCCTAG) | 0.466
34 | CTTCGGACTTGGGTTCTAACCTGTTGCTT (site CTTCGGACTAA) | 0.769
35 | CTTCGGACTTGGGTTCTAACCTGTTGCTT (site GAGTCTCCTCC) | 0.133
36 | CTTCGGGCTTGGGTTCTAACCTGTTGCAA (site CTTCGGACTTT) | 0.217
37 | CTTCGGGCTTGGGTTCTAACCTGTTGCAA (site CTTCGGGCTTT) | 0.915
38 | CTTCGTCCTTGGGTTCTAACCTGTTGCGT (site CTTCGTCCTAA) | 0.102
39 | CTTCGTCCTTGGGTTCTAACCTGTTGCGT (site CTTCGTCCTAC) | 1.59
40 | CTTCGTCCTTGGGTTCTAACCTGTTGCGT (site CTTCGTCCTAG) | 0.126
41 | CTTCGTCCTTGGGTTCTAACCTGTTGCGT (site CTTCGTCCTAT) | 0.797
42 | CTTGCGACTTGGGTTCTAACCTGTTGCTT (site CTTGCGACTAA) | 0.391
43 | CTTGCGACTTGGGTTCTAACCTGTTGCTT (site TGCATAGCTTG) | 0.0884
44 | CTTGCTCCTTGGGTTCTAACCTGTTGCAT (site AGACGGACTTG) | 0.0627

Row | Sequence | recombinant barcode read abundance (log10)
45 | CTTGCTCCTTGGGTTCTAACCTGTTGCAT (site CTTGCTCCTAT) | 0.227
46 | CTTTAGTCTTGGGTTCTAACCTGTTGCTA (site AAAGGTCCTCT) | 0.0491
47 | CTTTAGTCTTGGGTTCTAACCTGTTGCTA (site CTTTAGTCTTA) | 0.174
48 | CTTTCACCTTGGGTTCTAACCTGTTGCCT (site CTTTCACCTAG) | 0.547
49 | CTTTCACCTTGGGTTCTAACCTGTTGCCT (site CTTTCGTCTAG) | 0.0614
50 | CTTTCGCCTTGGGTTCTAACCTGTTGCCT (site CTATCGCCTAG) | 0.0688
51 | CTTTCGCCTTGGGTTCTAACCTGTTGCCT (site CTCTCGCCTAG) | 0.102
52 | CTTTCGCCTTGGGTTCTAACCTGTTGCCT (site CTGTCGCCTAG) | 0.0968
53 | CTTTCGCCTTGGGTTCTAACCTGTTGCCT (site CTTTCGCCTAG) | 0.0534
54 | CTTTGCCCTTGGGTTCTAACCTGTTGCCT (site CATTGCCCTAG) | 0.179
55 | CTTTGCCCTTGGGTTCTAACCTGTTGCCT (site CCTTGCCCTAG) | 0.0734
56 | CTTTGCCCTTGGGTTCTAACCTGTTGCCT (site CGTTGCCCTAG) | 0.0892
57 | CTTTGCCCTTGGGTTCTAACCTGTTGCCT (site CTTTGCCCTAG) | 0.687
58 | GAAAGGGCTTGGGTTCTAACCTGTTGCCT (site GAAAAGGCTAG) | 0.183
59 | GAAAGGGCTTGGGTTCTAACCTGTTGCCT (site GAAACGGCTAG) | 0.0842
60 | GAAAGGGCTTGGGTTCTAACCTGTTGCCT (site GAAAGGGCTAG) | 0.566
61 | GAAAGGGCTTGGGTTCTAACCTGTTGCCT (site GAAATGGCTAG) | 0.0705
62 | GAAATTCCTTGGGTTCTAACCTGTTGCCT (site GAAAATCCTAG) | 0.148
63 | GAAATTCCTTGGGTTCTAACCTGTTGCCT (site GAAACTCCTAG) | 0.266
64 | GAAATTCCTTGGGTTCTAACCTGTTGCCT (site GAAAGTCCTAG) | 0.132
65 | GAAATTCCTTGGGTTCTAACCTGTTGCCT (site GAAATTCCTAG) | 0.371
66 | GAACCTTCTTGGGTTCTAACCTGTTGCCT (site GAACCTTCTAG) | 0.695

Row | Sequence | recombinant barcode read abundance (log10)
67 | GAACCTTCTTGGGTTCTAACCTGTTGCCT (site GAACGATCTAG) | 0.0234
68 | GAACGACCTTGGGTTCTAACCTGTTGCTT (site GAACGACCTAA) | 0.613
69 | GAACGACCTTGGGTTCTAACCTGTTGCTT (site GAACGACCTCA) | 0.0114
70 | GAACGCTCTTGGGTTCTAACCTGTTGCTT (site GAACGCTCTAA) | 0.876
71 | GAACGCTCTTGGGTTCTAACCTGTTGCTT (site TGTAAGACTCT) | 0.225
72 | GAACGGGCTTGGGTTCTAACCTGTTGCGG (site GAACGGGCTCC) | 1.33
73 | GAACGGGCTTGGGTTCTAACCTGTTGCGG (site GGACGGGCTCT) | 0.12
74 | GAAGCTCCTTGGGTTCTAACCTGTTGCGT (site GAAGCTCCTAC) | 2.81
75 | GAAGCTCCTTGGGTTCTAACCTGTTGCGT (site GAGGCTCCTAC) | 0.581
76 | GAAGTAACTTGGGTTCTAACCTGTTGCCT (site GAAGTAACTAG) | 1.18
77 | GAAGTAACTTGGGTTCTAACCTGTTGCCT (site GACGTAACTAG) | 0.194
78 | GAAGTAACTTGGGTTCTAACCTGTTGCCT (site GAGGTAACTAG) | 0.346
79 | GAAGTAACTTGGGTTCTAACCTGTTGCCT (site GATGTAACTAG) | 0.0965
80 | GAATATTCTTGGGTTCTAACCTGTTGCTT (site GAATATTCTAA) | 0.206
81 | GAATATTCTTGGGTTCTAACCTGTTGCTT (site GAATGTTCTAA) | 0.0342
82 | GAATCTACTTGGGTTCTAACCTGTTGCCT (site GAATCTACTAG) | 0.512
83 | GAATCTACTTGGGTTCTAACCTGTTGCCT (site GCATCTACTAG) | 0.195
84 | GAATCTACTTGGGTTCTAACCTGTTGCCT (site GGATCTACTAG) | 0.896
85 | GAATCTACTTGGGTTCTAACCTGTTGCCT (site GTATCTACTAG) | 0.136
86 | GAATCTACTTGGGTTCTAACCTGTTGCTT (site GAATCTACTAA) | 0.095
